{"source": "paper PMC3750255", "about": "“Inhibition of Mycoplasma pneumoniae growth by FDA-approved anticancer and antiviral nucleoside and nucleobase analogs” (BMC Microbiology, 2013)", "molecules": {"B1": {"name": "Mpn HPRT (Mycoplasmoides pneumoniae M129) (protein)", "chain": "MGIKSIIIDQKQVEAGCNAALKWCNEHFAGKQVIVLGILKGCIPFLGKLISQFTFDLQLDFVAVASYHGGSRQQEAPKIVLDMSHDPKGKDILLIEDIVDSGRSIKLVLDLLHTRKAKSVILVSFIEKLKPREADIKVDYSCFKNQDEFLVGFGLDYQGFYRNLPYVGVFDPEDN"}}, "key": {"[1]": {"tested_on": "M. pneumoniae wild type (laboratory strain M129)", "test": "Mpn growth inhibition in 96-well plates (growth index A450/A560), wild type strain", "format": "cell-based, Mycoplasma pneumoniae", "settings": "Mycoplasmoides pneumoniae, read-out: Wild type MIC", "protocol": "(§1) A series dilution of each compound in Mycoplasma growth medium was added to Mpn cultures in 96-well plates. The plates were sealed and incubated at 37°C. Mpn growth was monitored by using growth index value e.g. the ratio of absorbance at 450 nm and 560 nm of the culture medium. Thirty nucleoside and nucleobase analogs and a nucleoside transporter inhibitor were included, and two Mpn strains, wild type and a thyA mutant (lacking TS activity), were used.\n(§2) Nucleoside and nucleobase analogs were dissolved in dimethyl sulfoxide (DMSO) as stock solutions and diluted with Mpn culture medium to the desired concentration immediately prior to use.\n(§3) Mpn laboratory strain M129 wild type and a thyA mutant strain [31] were used in this study. Mpn was cultured at 37°C in a CO2 incubator using 75 cm^2 tissue culture flasks containing 50 ml Hayflick’s medium, and harvested at day 4 when the medium color change was observed. The cells were harvested and the pellet was resuspended in 6 ml fresh medium and the cfu/ml was determined by serial dilution (10-fold) and plating on broth agar plate. Colonies was counted and cfu/ml was calculated.\n(§4) Inhibition studies were performed in 96-well plates containing 200 μl Mpn culture (approximately 10^6 cfu ml^-1) in Hayflick’s medium and 200 μl each compound in series dilutions (2-fold) with the growth medium, with three to four replicas. The plates were sealed with clear adhesive sheets and incubated at 37°C incubator. Absorbance ratio at 450 nm and 560 nm was used as Mpn growth index, which was measured daily, and by visual detection for at least 8 days, as previously described. […] The MICs (minimal inhibitory concentration required to inhibit Mpn growth to 90%) were determined as the lowest concentration at which the growth index was ≈ 10% of the control values (at the time when the control culture medium color turned yellow), essentially as described."}, "[2]": {"tested_on": "M. pneumoniae thyA mutant (lacking TS activity)", "test": "microbe, parasite or virus in culture", "format": "cell-based, Mycoplasma pneumoniae", "settings": "Mycoplasmoides pneumoniae, read-out: thyA mutant MIC", "protocol": "as §1, §2, §3, §4"}, "[3]": {"tested_on": "Mpn wild type cells", "test": "Uptake and metabolism of tritium labelled natural nucleoside and nucleobases in the presence of analogs", "format": "cell-based, Mycoplasma pneumoniae", "protocol": "The cells were harvested and analyzed essentially as described. Analogs used were dipyridamole, 6-thioguanine (6-TG), trifluorothymidine (TFT), gemcitabine (dFdC) and 5-fluorodeoxyuridine (5FdU). Total uptake is the percent of radioactivity recovered in the cells divided by total radioactivity added to the growth medium. Percent of acid insoluble (radioactivity found in DNA and RNA) was also calculated. These experiments were done more than three times and data are given as mean ± SD."}, "[4]": {"biological_target": "T1, Ureaplasma TK (Ureaplasma parvum serovar 3, UniProt Q9PPP5)", "T1 construct": "made in house", "T1 sequence (Q9PPP5 1-223)": "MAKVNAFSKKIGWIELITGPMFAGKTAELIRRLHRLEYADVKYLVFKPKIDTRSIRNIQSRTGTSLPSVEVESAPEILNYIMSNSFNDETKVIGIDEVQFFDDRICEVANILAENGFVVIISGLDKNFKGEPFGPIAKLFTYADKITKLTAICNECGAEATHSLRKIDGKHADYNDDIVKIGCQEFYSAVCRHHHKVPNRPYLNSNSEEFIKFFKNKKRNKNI", "test": "Thymidine kinase inhibition with [3H]-dT as substrate", "format": "biochemical", "settings": "10 μM tritium labelled thymidine", "protocol": "(§5) Thymidine kinase assay was performed using tritium labelled thymidine ([^3H]-dT) as substrate and various concentrations of the inhibitors essentially as previously described to determine the IC50 values of TFT and 5FdU."}, "[5]": {"biological_target": "T2, human TK1 (Homo sapiens, UniProt P04183)", "T2 construct": "made in house", "T2 sequence (P04183 1-234)": "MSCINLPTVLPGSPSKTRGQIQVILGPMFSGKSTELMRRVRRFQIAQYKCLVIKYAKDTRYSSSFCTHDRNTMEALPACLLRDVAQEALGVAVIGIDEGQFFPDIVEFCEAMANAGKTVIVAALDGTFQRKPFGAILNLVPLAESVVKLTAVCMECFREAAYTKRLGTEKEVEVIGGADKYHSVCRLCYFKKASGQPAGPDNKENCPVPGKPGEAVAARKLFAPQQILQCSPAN", "test": "Thymidine kinase inhibition with [3H]-dT as substrate", "format": "biochemical", "settings": "10 μM tritium labelled thymidine", "protocol": "as §5"}, "[6]": {"biological_target": "T3, human TK2 (Homo sapiens, UniProt O00142)", "T3 construct": "made in house", "T3 sequence (O00142 34-265)": "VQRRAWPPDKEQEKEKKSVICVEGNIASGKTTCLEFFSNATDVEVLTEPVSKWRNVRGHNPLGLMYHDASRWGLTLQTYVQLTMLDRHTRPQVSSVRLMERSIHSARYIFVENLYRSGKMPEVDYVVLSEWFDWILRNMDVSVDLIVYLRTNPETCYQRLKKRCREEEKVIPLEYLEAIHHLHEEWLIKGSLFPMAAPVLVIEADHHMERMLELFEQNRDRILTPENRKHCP", "test": "Thymidine kinase inhibition with [3H]-dT as substrate", "format": "biochemical", "settings": "10 μM tritium labelled thymidine", "protocol": "as §5"}, "[7]": {"biological_target": "T4, TK in Mpn extracts (Mycoplasmoides pneumoniae, UniProt P75070)", "T4 construct": "endogenous in cells; host or cells: Mycoplasma pneumoniae M129 total protein extract", "T4 sequence (P75070 1-191)": "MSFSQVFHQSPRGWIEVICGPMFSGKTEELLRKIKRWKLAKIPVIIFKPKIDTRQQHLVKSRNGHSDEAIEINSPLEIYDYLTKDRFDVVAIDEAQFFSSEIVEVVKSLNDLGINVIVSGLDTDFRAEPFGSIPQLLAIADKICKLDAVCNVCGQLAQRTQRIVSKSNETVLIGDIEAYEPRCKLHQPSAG", "test": "Inhibition of dT phosphorylation in Mpn protein extracts", "format": "biochemical", "protocol": "Both TFT and 5FdU are substrates of Mycoplasma and human TKs, as described above and earlier studies.\nas §5"}, "[8]": {"substrate": "O=c1[nH]cnc2nc[nH]c12", "test": "purified protein, by the assay type", "settings": "other: as substrate of Mpn HPRT, Michaelis-Menten; pH 7.5; 37.0 °C"}, "[9]": {"settings": "10 μM analog, 70 hours, 37°C, radioactivity in cells / total added"}, "[10]": {"settings": "10 μM analog, 70 hours, acid insoluble fraction / total in cells"}}}
{"molecule": "O=c1[nH]c(=O)n([C@H]2C[C@H](O)[C@@H](CO)O2)cc1F", "note": "[5-fluorodeoxyuridine (5FdU), 5-fluorodeoxyuridine]", "values": [{"measurement": "MIC", "setting": "[1]", "value": 7.8, "unit": "µg/mL"}, {"measurement": "MIC", "setting": "[2]", "value": 15.6, "unit": "µg/mL"}, {"measurement": "Stimulation of [3H]-dT uptake", "setting": "[3]; 10 μM analog versus control", "value": 2, "unit": "fold"}, {"measurement": "[3H]-Ade Total uptake", "setting": "[3]; [9]", "value": "0.36±0.1", "unit": "%"}, {"measurement": "[3H]-Gua Total uptake", "setting": "[3]; [9]", "value": "0.16±0.03", "unit": "%"}, {"measurement": "[3H]-Hx Total uptake", "setting": "[3]; [9]", "value": "0.006± 0.001", "unit": "%"}, {"measurement": "[3H]-Ura Total uptake", "setting": "[3]; [9]", "value": "0.087±0.003", "unit": "%"}, {"measurement": "[3H]-dT Total uptake", "setting": "[3]; [9]", "value": "14.7±0.2", "unit": "%"}, {"measurement": "[3H]-Ade Incorporation", "setting": "[3]; [10]", "value": "42±2", "unit": "%"}, {"measurement": "[3H]-Gua Incorporation", "setting": "[3]; [10]", "value": "87±3", "unit": "%"}, {"measurement": "[3H]-Hx Incorporation", "setting": "[3]; [10]", "value": "76±4", "unit": "%"}, {"measurement": "[3H]-Ura Incorporation", "setting": "[3]; [10]", "value": "19±7", "unit": "%"}, {"measurement": "[3H]-dT Incorporation", "setting": "[3]; [10]", "value": "96.0±0.5", "unit": "%"}, {"measurement": "IC50", "setting": "[4]", "value": "1000 ± 13.3", "unit": "µM"}, {"measurement": "IC50", "setting": "[5]", "value": "75.9 ± 2.6", "unit": "µM"}, {"measurement": "IC50", "setting": "[6]", "value": "158 ± 2.7", "unit": "µM"}, {"measurement": "IC50", "setting": "[7]", "value": "47.9 ± 1.2", "unit": "µM"}]}
{"molecule": "B1", "values": [{"measurement": "Km", "setting": "[8]", "value": "100.1 ± 6.5", "unit": "µM"}]}
